Data: US20090036448A1, “PYRIMIDINE DERIVATIVES AND METHODS OF TREATMENT RELATED TO THE USE THEREOF” (TAISHO PHARMECUTICAL CO., LTD., priority 2004, published 2009)
Structures can show the parent of a compound that is named as a salt.

The compounds below were run against MCH receptor (Homo sapiens, UniProt Q99705) (assay: FLIPR/FDSS6000 functional assay: intracellular Ca2+ changes evoked by MCH). Conditions: antagonist activity, 50 nM of MCH, [Ca2+]i by FLIPR or FDSS; read-out: IC50.
Assay type: cell-based
Description: Subsequently, a functional based assay was used to confirm the lead hits, referred to as FLIPR™ (the Fluorometric Imaging Plate Reader) and FDSS6000™ (Functional Drug Screening System). This assay utilized a non-endogenous, constitutively active version of the MCH receptor.
The FLIPR and FDSS assays are able to detect intracellular Ca^2+ concentration in cells, which can be utilized to assess receptor activation and determine whether a candidate compound is an, for example, antagonist, inverse agonist or agonist to a Gq-coupled receptor. The concentration of free Ca^2+ in the cytosol of any cell is extremely low, whereas its concentration in the extracellular fluid and endoplasmic reticulum (ER) is very high. Thus, there is a large gradient tending to drive Ca^2+ into the cytosol across both the plasma membrane and ER. The FLIPR™ and FDSS6000™ systems (Molecular Devices Corporation, HAMAMATSU Photonics K.K.) are designed to perform functional cell-based assays, such as the measurement of intracellular calcium for high-throughput screening. The measurement of fluorescent is associated with calcium release upon activation of the Gq-coupled receptors.
Fluorometric Imaging Plate Reader system was used to allow for rapid, kinetic measurements of intracellular fluorescence in 96 well microplates (or 384 well microplates). Simultaneous measurements of fluorescence in all wells can be made by FLIPR or FDSS6000™ every second with high sensitivity and precision. These systems are ideal for measuring cell-based functional assays such as monitoring the intracellular calcium fluxes that occur within seconds after activation of the Gq coupled receptor.
Briefly, the cells are seeded into 96 well at 5.5×10^4 cells/well with complete culture media (Dulbecco's Modified Eagle Medium with 10% fetal bovine serum, 2 mM L-glutamine, 1 mM sodium pyruvate and 0.5 mg/mL G418, pH 7.4) for the assay next day. On the day of assay, the media is removed and the cells are incubated with 100 μl of loading buffer (4 μM Fluo-4-AM in complete culture media containing 2.5 mM Probenicid, 0.5 mg/ml and 0.2% bovine serum albumin) in 5% CO2 incubator at 37° C. for 1 hr. The loading buffer is removed, and the cells are washed with wash buffer (Hank's Balanced Salt Solution containing 2.5 mM Probenicid, 20 mM HEPES, 0.5 mg/mL and 0.2% bovine serum albumin, pH 7.4). One hundred fifty μl of wash buffer containing various concentrations of test compound is added to the cells, and the cells are incubated in 5% CO2 incubator at 37° C. for 30 min. Fifty μl of wash buffer containing various concentration of MCH are added to each well, and transient changes in [Ca^2+]i evoked by MCH are monitored using the FLIPR or FDSS in 96 well plates at Ex. 488 nm and Em. 530 nm for 290 second. When antagonist activity of compound is tested, 50 nM of MCH is used.
Use of FLIPR™ and FDSS6000™ can be accomplished by following manufacturer's instruction (Molecular Device Corporation and HAMAMATSU Photonics K.K.).

Q: Which IC50 does the source give for `Cc1nc(N[C@H]2CC[C@@H](NC(=O)c3ccc(F)cc3)CC2)cc(N(C)C)n1` [Example 7, N-(cis-4-{[6-(Dimethylamino)-2-methylpyrimidin-4-yl]amino}cyclohexyl)-4-fluorobenzamide hydrochloride] here?
A: 101 nM

Same assay, conditions: class by percent of control at 10^−7 M or by IC50; antagonist activity, 50 nM of MCH; read-out: class

Q: Which IC50 does the source give for `Cc1nc(N[C@H]2CC[C@@H](NC(=O)c3cc(F)c(F)c(F)c3)CC2)cc(N(C)Cc2ccccc2)n1` [Example 175, N-[cis-4-({6-[Benzyl(methyl)amino]-2-methylpyrimidin-4-yl}amino)cyclohexyl]-3,4,5-trifluorobenzamide hydrochloride] here?
A: > 200 nM

Q: With `Cc1nc(N[C@H]2CC[C@@H](NC(=S)Nc3ccc(F)c(Cl)c3)CC2)cc(N(C)C)n1` [Example 183, N-(3-Chloro-4-fluorophenyl)-N′-(cis-4-{[6-(dimethylamino)-2-methylpyrimidin-4-yl]amino}cyclohexyl)thiourea hydrochloride] as the compound, how does the IC50 read?
A: > 200 nM

Q: With `CN(C)c1cc(NC[C@H]2CC[C@@H](NC(=O)c3ccc(F)c(F)c3)CC2)ncn1` [Example 3, N-[cis-4-({[6-(Dimethylamino)pyrimidin-4-yl]amino}methyl)cyclohexyl]-3,4-difluorobenzamide hydrochloride] as the compound, how does the IC50 read?
A: > 200 nM

Q: `Cc1nc(N[C@H]2CC[C@@H](NC(=O)c3ccc(OC(F)(F)F)c(Cl)c3)CC2)cc(N(C)C)n1` [Example 16, 3-Chloro-N-(cis-4-{[6-(dimethylamino)-2-methylpyrimidin-4-yl]amino}cyclohexyl)-4-(trifluoromethoxy)benzamide hydrochloride] was tested. Which IC50 did it give?
A: 50 to 200 nM

Q: With `Cc1nc(N[C@H]2CC[C@@H](NC(=O)c3cccc(C(F)(F)F)c3)CC2)cc(N(C)C)n1` [Example 17, N-(cis-4-{[6-(Dimethylamino)-2-methylpyrimidin-4-yl]amino}cyclohexyl)-3-(trifluoromethyl)-benzamide hydrochloride] as the compound, how does the IC50 read?
A: < 50 nM

Q: How did the IC50 turn out when `Cc1nc(N[C@H]2CC[C@@H](NC(=O)c3cc(F)cc(C(F)(F)F)c3)CC2)cc(N(C)C)n1` [Example 26, N-(cis-4-{[6-(Dimethylamino)-2-methylpyrimidin-4-yl]amino}cyclohexyl)-3-fluoro-5-(trifluoromethyl)benzamide hydrochloride] was run?
A: 50 to 200 nM

Q: How did the IC50 turn out when `CN(C)c1cc(N[C@H]2CC[C@@H](CNC(=O)c3ccc(F)c(F)c3)CC2)ncn1` [Example 4, N-[(cis-4-{[6-(Dimethylamino)pyrimidin-4-yl]amino}cyclohexyl)methyl]-3,4-difluorobenzamide hydrochloride] was run?
A: > 200 nM

Q: For `CN(CCO)c1nccc(N[C@H]2CC[C@@H](NC(=O)c3ccc(F)c(F)c3)CC2)n1` [Example 36, 3,4-Difluoro-N-[cis-4-({2-[(2-hydroxyethyl)(methyl)amino]pyrimidin-4-yl}amino)-cyclohexyl]benzamide hydrochloride], which IC50 is on record?
A: > 200 nM

Q: Which IC50 does the source give for `Cc1nc(NC[C@H]2CC[C@@H](NC(=O)c3ccc(F)c(F)c3)CC2)cc(N(C)C)n1` [Example 28, N-[cis-4-({[6-(Dimethylamino)-2-methylpyrimidin-4-yl]amino}methyl)cyclohexyl]-3,4-difluorobenzamide hydrochloride] here?
A: > 200 nM

Q: For `Cc1nc(N[C@H]2CC[C@@H](NC(=O)c3ccc(F)c(C(F)(F)F)c3)CC2)cc(N(C)C)n1` [Example 14, N-(cis-4-{[6-(Dimethylamino)-2-methylpyrimidin-4-yl]amino}cyclohexyl)-4-fluoro-3-(trifluoromethyl)benzamide hydrochloride], which IC50 is on record?
A: < 50 nM

Q: How did the IC50 turn out when `Cc1nc(N[C@H]2CC[C@@H](NC(=O)Oc3ccc(Br)cc3)CC2)cc(N(C)C)n1` [Example 184, 4-Bromophenyl (cis-4-{[6-(dimethylamino)-2-methylpyrimidin-4-yl]amino}cyclohexyl)carbamate] was run?
A: > 200 nM

Q: `Cc1nc(N[C@H]2CC[C@@H](C(=O)Oc3ccc(F)c(Cl)c3)CC2)cc(N(C)C)n1` [Example 194, 3-Chloro-4-fluorophenyl cis-4-{[6-(dimethylamino)-2-methylpyrimidin-4-yl]amino}-cyclohexanecarboxylate hydrochloride] was tested. Which IC50 did it give?
A: > 200 nM

Q: Which IC50 does the source give for `CCNc1nccc(N[C@H]2CC[C@@H](NC(=O)c3ccc(F)c(F)c3)CC2)n1` [Example 34, N-(cis-4-{[2-(Ethylamino)pyrimidin-4-yl]amino}cyclohexyl)-3,4-difluorobenzamide hydrochloride] here?
A: > 200 nM

Q: How did the IC50 turn out when `COc1cc(N[C@H]2CC[C@@H](NC(=O)c3ccc(F)c(Cl)c3)CC2)nc(OC)n1` [Example 185, 3-Chloro-N-{cis-4-[(2,6-dimethoxypyrimidin-4-yl)amino]cyclohexyl}-4-fluorobenzamide hydrochloride] was run?
A: > 200 nM

Q: `Cn1cnc2c(N[C@H]3CC[C@@H](NC(=O)c4ccc(F)c(Cl)c4)CC3)ncnc21` [Example 190, 3-Chloro-4-fluoro-N-{cis-4-[(9-methyl-9H-purin-6-yl)amino]cyclohexyl}benzamide hydrochloride] was tested. Which IC50 did it give?
A: > 200 nM

Q: Which IC50 does the source give for `CCc1nc(N[C@H]2CC[C@@H](NC(=O)c3ccc(F)c(F)c3)CC2)cc(N(C)C)n1` [Example 32, N-(cis-4-{[6-(Dimethylamino)-2-ethylpyrimidin-4-yl]amino}cyclohexyl)-3,4-difluorobenzamide hydrochloride] here?
A: < 50 nM

Q: How did the IC50 turn out when `CN(C)c1nccc(N[C@H]2CC[C@@H](NC(=O)c3ccc(F)c(Cl)c3)CC2)n1` [Example 44, 3-Chloro-N-(cis-4-{[2-(dimethylamino)pyrimidin-4-yl]amino}cyclohexyl)-4-fluorobenzamide hydrochloride] was run?
A: < 50 nM

Q: With `Cc1nc(N[C@H]2CC[C@@H](NC(=O)c3cccc(OC(F)(F)F)c3)CC2)cc(N(C)C)n1` [Example 18, N-(cis-4-{[6-(Dimethylamino)-2-methylpyrimidin-4-yl]amino}cyclohexyl)-3-(trifluoromethoxy)benzamide hydrochloride] as the compound, how does the IC50 read?
A: < 50 nM

Q: With `Cc1nc(N[C@H]2CC[C@@H](NC(=O)c3ccc(C(F)(F)F)cc3)CC2)cc(N(C)C)n1` [Example 19, N-(cis-4-{[6-(Dimethylamino)-2-methylpyrimidin-4-yl]amino}cyclohexyl)-4-(trifluoromethyl)benzamide hydrochloride] as the compound, how does the IC50 read?
A: > 200 nM

Q: How did the IC50 turn out when `CN(C)c1cc(N[C@H]2CC[C@@H](NC(=O)c3ccc(F)c(Cl)c3)CC2)nc(-c2ccccc2)n1` [Example 178, 3-Chloro-N-(cis-4-{[6-(dimethylamino)-2-phenylpyrimidin-4-yl]amino}cyclohexyl)-4-fluorobenzamide hydrochloride] was run?
A: > 200 nM

Q: How did the IC50 turn out when `Cc1nc(N[C@H]2CC[C@@H](NC(=O)c3cc(F)c(F)c(F)c3)CC2)cc(N(C)C)n1` [Example 11, N-(cis-4-{[6-(Dimethylamino)-2-methylpyrimidin-4-yl]amino}cyclohexyl)-3,4,5-trifluorobenzamide hydrochloride] was run?
A: < 50 nM

Q: For `Cc1nc(N[C@H]2CC[C@@H](NS(=O)(=O)c3ccc(F)c(Cl)c3)CC2)cc(N(C)C)n1` [Example 182, 3-Chloro-N-(cis-4-{[6-(dimethylamino)-2-methylpyrimidin-4-yl]amino}cyclohexyl)-4-fluorobenzenesulfonamide hydrochloride], which IC50 is on record?
A: > 200 nM

Q: For `CCc1nc(N[C@H]2CC[C@@H](NC(=O)c3cc(F)c(F)c(F)c3)CC2)cc(N(C)C)n1` [Example 177, N-(cis-4-{[6-(Dimethylamino)-2-ethylpyrimidin-4-yl]amino}cyclohexyl)-3,4,5-trifluorobenzamide hydrochloride], which IC50 is on record?
A: < 50 nM

Q: Which IC50 does the source give for `Cc1nc(N[C@H]2CC[C@@H](NC(=O)c3ccc(F)cc3)CC2)cc(N(C)C)n1` [Example 7, N-(cis-4-{[6-(Dimethylamino)-2-methylpyrimidin-4-yl]amino}cyclohexyl)-4-fluorobenzamide hydrochloride] here?
A: 50 to 200 nM

Q: Which IC50 does the source give for `Cc1nc(N[C@H]2CC[C@@H](NC(=O)c3cc(C(F)(F)F)cc(C(F)(F)F)c3)CC2)cc(N(C)C)n1` [Example 27, N-(cis-4-{([6-(Dimethylamino)-2-methylpyrimidin-4-yl]amino}cyclohexyl)-3,5-bis-(trifluoromethyl)benzamide hydrochloride] here?
A: 50 to 200 nM

Q: How did the IC50 turn out when `Cc1cnc(N(C)C)nc1N[C@H]1CC[C@@H](NC(=O)c2ccc(F)c(Cl)c2)CC1` [Example 46, 3-Chloro-N-(cis-4-{[2-(dimethylamino)-5-methylpyrimidin-4-yl]amino}cyclohexyl)-4-fluorobenzamide hydrochloride] was run?
A: > 200 nM

Q: `Cc1nc(N)cc(N[C@H]2CC[C@@H](NC(=O)c3cc(F)c(F)c(F)c3)CC2)n1` [Example 168, N-{cis-4-[(6-Amino-2-methylpyrimidin-4-yl)amino]cyclohexyl}-3,4,5-trifluorobenzamide hydrochloride] was tested. Which IC50 did it give?
A: > 200 nM
